Each compound was assayed against VR1 (Rattus norvegicus, UniProt O35433) (assay: Calcium imaging assay: inhibition of capsaicin induced calcium influx in DRG neurons (Fura2, microscope)). Conditions: capsaicin stimulation; class symbols per legend.
Assay type: cell-based
Parameters: endogenous in cells; host or cells: DRG neurons
Description: VR1 protein is a heat-gated cation channel that […] resulting in neuronal membrane depolarization and elevated intracellular calcium levels. Therefore the functional activity of compounds at the VR1 receptor may be determined by measuring changes in intracellular calcium levels in neurons such as the dorsal root ganglion.
DRG neurons were grown on PDL coated 96-well black-walled plates, in the presence of DMEM medium containing 5% Penstrep, 5% Glutamax, 200 μg/ml hygromycin, 5 μg/ml blasticide and 10% heat inactivated FBS. Prior to assay, cells were loaded with 5 μg/ml Fura2 in normal saline solution at 37° C for 40 minutes. Cells were then washed with normal saline to remove dye before commencement of the experiment.
The plated neurons were transferred into a chamber on the stage of a Nikon eclipse TE300 microscope after which neurons were allowed to attain a stable fluorescence for about 10 minutes before beginning the experiment. The assay consists of two stages, a pretreatment phase followed by a treatment phase. First, a solution of the test compound was added from a multivalve perfusion system to the cells for 1 minute (pretreatment). Immediately following, capsaicin (250 nM) was added in the presence of the test compound (treatment) for a specific period between 20 and 60 seconds.
Fura2 was excited at […] to indicate relative calcium ion concentration. Changes in wavelength measurements were made throughout the course of the experiment. The fluorescence ratio was calculated by dividing fluorescence measured at 340 nm by that at 380 nM. Data was collected using Intelligent Imaging’s Slidebook software. All compounds that inhibited capsaicin induced calcium influx greater than 75% were considered positives.
Fluorescence reflecting calcium ion influx is reduced.

VR1, sequence (O35433 whole entry): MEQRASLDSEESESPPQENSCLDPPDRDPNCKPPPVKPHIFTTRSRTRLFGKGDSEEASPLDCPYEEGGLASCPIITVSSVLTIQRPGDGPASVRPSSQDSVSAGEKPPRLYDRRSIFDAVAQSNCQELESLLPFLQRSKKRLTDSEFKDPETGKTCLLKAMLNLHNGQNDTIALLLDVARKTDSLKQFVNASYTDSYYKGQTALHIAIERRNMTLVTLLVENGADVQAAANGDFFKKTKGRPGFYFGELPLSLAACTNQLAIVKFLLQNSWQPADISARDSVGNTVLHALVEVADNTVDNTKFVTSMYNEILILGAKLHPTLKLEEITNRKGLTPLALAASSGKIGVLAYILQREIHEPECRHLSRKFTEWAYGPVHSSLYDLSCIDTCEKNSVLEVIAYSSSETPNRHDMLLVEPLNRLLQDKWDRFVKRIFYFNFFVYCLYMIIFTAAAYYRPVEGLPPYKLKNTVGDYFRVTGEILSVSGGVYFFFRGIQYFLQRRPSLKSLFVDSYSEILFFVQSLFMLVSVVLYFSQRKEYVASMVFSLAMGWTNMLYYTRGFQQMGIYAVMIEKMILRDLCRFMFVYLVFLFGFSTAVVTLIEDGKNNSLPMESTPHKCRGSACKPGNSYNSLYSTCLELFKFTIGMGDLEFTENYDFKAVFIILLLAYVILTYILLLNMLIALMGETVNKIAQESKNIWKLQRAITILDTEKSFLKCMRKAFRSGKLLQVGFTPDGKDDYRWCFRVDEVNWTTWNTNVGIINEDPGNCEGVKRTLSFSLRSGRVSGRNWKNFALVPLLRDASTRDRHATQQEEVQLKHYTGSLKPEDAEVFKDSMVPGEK

Row | Compound | inhibition of calcium ion influx induced by capsaicin stimulation
1 | CC(C)(C)C#Cc1ccc(C(=O)Nc2cccc3cnccc23)cc1 [Compound 378] | ++++ (compound exhibited 75% or greater inhibition of calcium ion influx induced by capsaicin stimulation)
2 | CC(C)(C)C#Cc1ccc(C(=O)Nc2cnc3ccccc3c2)cc1 [Compound 379] | ++++ (compound exhibited 75% or greater inhibition of calcium ion influx induced by capsaicin stimulation)
3 | CCN(CC)c1ccc(NC(=O)c2ccc(C#CC(C)(C)C)cc2)cc1 [Compound 380] | ++ (compound exhibited 25-50% inhibition of calcium ion influx induced by capsaicin stimulation)
4 | CC(C)(C)C#Cc1ccc(C(=O)Nc2ccc(Br)cn2)cc1 [Compound 382] | ++ (compound exhibited 25-50% inhibition of calcium ion influx induced by capsaicin stimulation)
5 | CC(C)(C)C#Cc1ccc(C(=O)Nc2ccc(C(F)(F)F)cn2)cc1 [Compound 383] | +++ (compound exhibited 50-75% inhibition of calcium ion influx induced by capsaicin stimulation)
6 | CC(C)(C)C#Cc1ccc(C(=O)Nc2ccc(Cl)nc2)cc1 [Compound 384] | ++++ (compound exhibited 75% or greater inhibition of calcium ion influx induced by capsaicin stimulation)
7 | COc1ccc(NC(=O)c2ccc(C#CC(C)(C)C)cc2)cn1 [Compound 385] | ++++ (compound exhibited 75% or greater inhibition of calcium ion influx induced by capsaicin stimulation)
8 | Cn1ccc2cc(NC(=O)c3ccc(C#CC(C)(C)C)cc3)ccc21 [Compound 387] | ++++ (compound exhibited 75% or greater inhibition of calcium ion influx induced by capsaicin stimulation)
9 | COc1cccc(NC(=O)c2ccc(/C=C/C(F)(F)F)cc2)c1 [Compound 389] | ++++ (compound exhibited 75% or greater inhibition of calcium ion influx induced by capsaicin stimulation)
10 | O=C(Nc1ccc(Cl)cc1)c1ccc(/C=C/C(F)(F)F)cc1 [Compound 390] | ++ (compound exhibited 25-50% inhibition of calcium ion influx induced by capsaicin stimulation)
11 | COc1ccc(NC(=O)c2ccc(/C=C/C(F)(F)F)cc2)cc1Cl [Compound 391] | + (compound exhibited 0-25% inhibition of calcium ion influx induced by capsaicin stimulation)
12 | O=C(Nc1ccc(C(F)(F)F)cc1)c1ccc(/C=C/C(F)(F)F)cc1 [Compound 392] | + (compound exhibited 0-25% inhibition of calcium ion influx induced by capsaicin stimulation)
13 | CC(C)c1ccc(NC(=O)c2ccc(/C=C/C(F)(F)F)cc2)cc1 [Compound 394] | ++ (compound exhibited 25-50% inhibition of calcium ion influx induced by capsaicin stimulation)
14 | CCCCc1ccc(NC(=O)c2ccc(/C=C/C(F)(F)F)cc2)cc1 [Compound 395] | + (compound exhibited 0-25% inhibition of calcium ion influx induced by capsaicin stimulation)
15 | O=C(Nc1ccc2c(c1)OCCO2)c1ccc(/C=C/C(F)(F)F)cc1 [Compound 397] | +++ (compound exhibited 50-75% inhibition of calcium ion influx induced by capsaicin stimulation)
16 | O=C(Nc1cccc(C(F)(F)F)c1)c1ccc(/C=C/C(F)(F)F)cc1 [Compound 398] | ++++ (compound exhibited 75% or greater inhibition of calcium ion influx induced by capsaicin stimulation)
17 | O=C(Nc1ccc(OC(F)(F)F)cc1)c1ccc(/C=C/C(F)(F)F)cc1 [Compound 399] | ++++ (compound exhibited 75% or greater inhibition of calcium ion influx induced by capsaicin stimulation)
18 | COc1ccc(NC(=O)c2ccc(/C=C/C(F)(F)F)cc2)cn1 [Compound 406] | ++ (compound exhibited 25-50% inhibition of calcium ion influx induced by capsaicin stimulation)
19 | CC(C)(C)C#Cc1ccc(C(=O)Nc2cccc(S(C)(=O)=O)c2)cn1 [Compound 411] | ++++ (compound exhibited 75% or greater inhibition of calcium ion influx induced by capsaicin stimulation)
20 | CC(C)(C)C#Cc1ccc(C(=O)Nc2cccc(S(C)(=O)=O)c2)cc1 [Compound 412] | ++++ (compound exhibited 75% or greater inhibition of calcium ion influx induced by capsaicin stimulation)
21 | CCN(CC)CCOC(=O)c1ccc(NC(=O)c2ccc(C#CC(C)(C)C)nc2)cc1 [Compound 413] | + (compound exhibited 0-25% inhibition of calcium ion influx induced by capsaicin stimulation)

Row | Compound | inhibition of calcium ion influx induced by capsaicin stimulation
22 | COc1cccc(NC(=O)c2ccc(C#CC(C)(C)C)nc2)c1 [Compound 414] | ++++ (compound exhibited 75% or greater inhibition of calcium ion influx induced by capsaicin stimulation)
23 | COc1ccc(NC(=O)c2ccc(C#CC(C)(C)C)nc2)cc1Cl [Compound 416] | ++ (compound exhibited 25-50% inhibition of calcium ion influx induced by capsaicin stimulation)
24 | CC(C)(C)C#Cc1ccc(C(=O)Nc2ccc(C(F)(F)F)cc2)cn1 [Compound 417] | ++++ (compound exhibited 75% or greater inhibition of calcium ion influx induced by capsaicin stimulation)
25 | CC(C)(C)C#Cc1ccc(C(=O)Nc2ccc(Cl)c(C(F)(F)F)c2)cn1 [Compound 418] | ++++ (compound exhibited 75% or greater inhibition of calcium ion influx induced by capsaicin stimulation)
26 | CC(C)(C)C#Cc1ccc(C(=O)Nc2ccc(C(C)(C)C)cc2)cn1 [Compound 419] | ++++ (compound exhibited 75% or greater inhibition of calcium ion influx induced by capsaicin stimulation)
27 | CC(C)c1ccc(NC(=O)c2ccc(C#CC(C)(C)C)nc2)cc1 [Compound 420] | +++ (compound exhibited 50-75% inhibition of calcium ion influx induced by capsaicin stimulation)
28 | CCCCc1ccc(NC(=O)c2ccc(C#CC(C)(C)C)nc2)cc1 [Compound 421] | ++ (compound exhibited 25-50% inhibition of calcium ion influx induced by capsaicin stimulation)
29 | COc1cc(NC(=O)c2ccc(C#CC(C)(C)C)nc2)cc(C(F)(F)F)c1 [Compound 422] | ++++ (compound exhibited 75% or greater inhibition of calcium ion influx induced by capsaicin stimulation)
30 | CC(C)(C)C#Cc1ccc(C(=O)Nc2ccc3c(c2)OCCO3)cn1 [Compound 423] | ++++ (compound exhibited 75% or greater inhibition of calcium ion influx induced by capsaicin stimulation)
31 | CC(C)(C)C#Cc1ccc(C(=O)Nc2cccc(C(F)(F)F)c2)cn1 [Compound 424] | +++ (compound exhibited 50-75% inhibition of calcium ion influx induced by capsaicin stimulation)
32 | CC(C)(C)C#Cc1ccc(C(=O)Nc2ccc(OC(F)(F)F)cc2)cn1 [Compound 425] | + (compound exhibited 0-25% inhibition of calcium ion influx induced by capsaicin stimulation)
33 | CC(C)(C)C#Cc1ccc(C(=O)Nc2ccc(S(C)(=O)=O)cc2)cn1 [Compound 427] | ++ (compound exhibited 25-50% inhibition of calcium ion influx induced by capsaicin stimulation)
34 | CC(C)(C)C#Cc1ccc(C(=O)Nc2cccc3cnccc23)cn1 [Compound 428] | ++++ (compound exhibited 75% or greater inhibition of calcium ion influx induced by capsaicin stimulation)
35 | CC(C)(C)C#Cc1ccc(C(=O)Nc2cnc3ccccc3c2)cn1 [Compound 429] | ++++ (compound exhibited 75% or greater inhibition of calcium ion influx induced by capsaicin stimulation)
36 | CCN(CC)c1ccc(NC(=O)c2ccc(C#CC(C)(C)C)nc2)cc1 [Compound 430] | + (compound exhibited 0-25% inhibition of calcium ion influx induced by capsaicin stimulation)
37 | Cc1ccc(NC(=O)c2ccc(C#CC(C)(C)C)nc2)nc1 [Compound 432] | + (compound exhibited 0-25% inhibition of calcium ion influx induced by capsaicin stimulation)
38 | CC(C)(C)C#Cc1ccc(C(=O)Nc2ccc(C(F)(F)F)cn2)cn1 [Compound 433] | ++ (compound exhibited 25-50% inhibition of calcium ion influx induced by capsaicin stimulation)
39 | CC(C)(C)C#Cc1ccc(C(=O)Nc2ccc(Cl)nc2)cn1 [Compound 434] | + (compound exhibited 0-25% inhibition of calcium ion influx induced by capsaicin stimulation)
40 | COc1ccc(NC(=O)c2ccc(C#CC(C)(C)C)nc2)cn1 [Compound 435] | + (compound exhibited 0-25% inhibition of calcium ion influx induced by capsaicin stimulation)
41 | Cn1ccc2cc(NC(=O)c3ccc(C#CC(C)(C)C)nc3)ccc21 [Compound 437] | ++++ (compound exhibited 75% or greater inhibition of calcium ion influx induced by capsaicin stimulation)

Reference: patent publication US20050222200A1, “AMIDE DERIVATIVES AS ION CHANNEL LIGANDS AND PHARMACEUTICAL COMPOSITIONS AND METHODS OF USING THE SAME” (Renovis, Inc., priority 2003, published 2005)
